The values that follow come from patent US20260015354A1, “Solid State Forms of Ensifentrine” (Cipla Limited, priority 2022, published 2026).

≈ marks a conversion by molar mass, not a printed value.

The nature of the series: Comparative solubility of crystalline forms of Ensifentrine at pH 3. The series is classed as physicochemical. Conditions: for solubility compared to Form I: comparison in words. The source says:
The solubility of Form C1 and Form I disclosed in U.S. Pat. No. 9,062,047 at pH 3 were compared.
The solubility of Form C3 and Form I disclosed in U.S. Pat. No. 9,062,047 at pH 3 was compared.

Consider `COc1cc2c(cc1OC)-c1c/c(=N\c3c(C)cc(C)cc3C)n(CCNC(N)=O)c(=O)n1CC2` [Form C1], for which the “solubility compared to Form I” value is “better solubility compared to Form I”.
As for `COc1cc2c(cc1OC)-c1c/c(=N\c3c(C)cc(C)cc3C)n(CCNC(N)=O)c(=O)n1CC2` [Form C3], the “solubility compared to Form I” value is reported as “better solubility compared to Form I”. In addition, the solubility (time 15 min) is 2110 µg/mL (≈ 4.42 mM). For the same compound, the solubility (time 30 min) is 1960 µg/mL (≈ 4.1 mM). Under “time 60 min”, this compound gave a solubility of 2000 µg/mL (≈ 4.19 mM). The same compound displayed a solubility (time 120 min) of 2050 µg/mL (≈ 4.29 mM). Moreover, where the note is “time 240 min”, the solubility was found to be 2130 µg/mL (≈ 4.46 mM).
Regarding `COc1cc2c(cc1OC)-c1c/c(=N\c3c(C)cc(C)cc3C)n(CCNC(N)=O)c(=O)n1CC2` [Form I, reference compound], the solubility reads like this: (time 15 min) 1380 µg/mL (≈ 2.89 mM); (time 30 min) 1390 µg/mL (≈ 2.91 mM); (time 60 min) 1310 µg/mL (≈ 2.74 mM); (time 120 min) 1350 µg/mL (≈ 2.83 mM); (time 240 min) 1390 µg/mL (≈ 2.91 mM).

In general, solubility refers to the concentration that dissolves in the medium under given conditions. Read a high solubility as a readily soluble substance.
